From US6562829B1, “Treatment of hepatic cirrhosis” (Hadasit Medical Research Services & Development Co., Ltd., priority 1997, dated 2003)
Where two headings read alike, the source gives them in different places.

What was measured:
stellate cells [1] = assay: Smooth muscle actin in stellate cells, TAA prevention experiment (Example 5); assay type: in vivo, rat; settings: prophylactic administration of Halofuginone with TAA
Excerpt: (§1) Liver cirrhosis was induced with TAA as previously described. […] These cells are located in the subendothelial space, between the apical membrane of hepatocytes and the ablumenal side of the sinusoidal endothelial cells. The intimate association between the stellate cells and the neighboring cell types facilitates intercellular transport and paracrine stimulation by soluble mediators. In injured liver, these cells acquire features of myofibroblasts and express smooth muscle cytoskeletal markers such as smooth muscle actin. […] The experimental method was as follows.
(§2) Rats were treated with TAA alone or TAA with Halofuginone as previously described in Example 4 for the use of Halofuginone as both a prophylactic treatment and a treatment for existing liver cirrhosis. Tissue samples were also prepared as previously described, except that rather than undergoing staining for collagen, the samples were incubated with smooth muscle actin antibodies in a 1:1000 dilution, with detection performed by the Histomouse SP kit according to the instructions of the manufacturer (Zymed Laboratories Inc., San Francisco, Calif., USA).

[2] = system: bile duct ligation-induced fibrosis; assay type: in vivo, rat
Excerpt: In addition to dimethylnitrosamine-induced liver fibrosis, a second model of liver fibrosis in rats is available. […] Tox., 15:449-453, 1995]. Thus, the particular advantage of the bile duct ligation model is that any protective treatments must directly protect the liver from the pathological changes induced by fibrosis, rather than indirectly altering the effects of the exogeneous substance which is used to cause liver fibrosis in the animal model. The experimental method was as follows.
Male Wistar rats, weighing 200-250 g, were divided into four experimental groups with 3 rats in each group. […] It should be noted that all animals in the first two groups underwent sham operations which included all steps of the actual surgical procedure, with the exception of the bile duct ligation itself. The third group had bile duct ligation surgery and was not given Halofuginone. The fourth group had bile duct ligation surgery and was given Halofuginone. The actual surgical procedure was essentially similar to that reported in the literature [Kountaras, J. et al., Br. J. Exp. Pathol., 65:305-311, 1984].
All animals were given drinking water ad libitum. Rats which were given Halofuginone were fed Halofuginone in the normal rat diet at a concentration of 5 mg per kg diet weight for one week before surgery and for the duration of the experimental period, which was either 3 or 7 days after the surgical operation. Rats were sacrificed at the end of the experimental period. Both collagen content (through Sirius red staining) and collagen α1(I) gene expression were measured as described above in Example 1. In addition, serum alkaline phosphatase, alanine aminotransferase and aspartate aminotransferase levels were measured […] by a Hitachi Auto-analyzer System of Boerringher-Mannheim.

stellate cells [3] = assay: Smooth muscle actin in stellate cells, TAA treatment experiment (Example 5); assay type: in vivo, rat; settings: Halofuginone administered after induction of liver cirrhosis by TAA
Excerpt: as §1, §2

[4] = system: mild dimethylnitrosamine-induced fibrosis; assay: Mild dimethylnitrosamine-induced fibrosis in rat liver (Example 2); assay type: in vivo; settings: 4 weeks
Procedure: The specific experimental method used was similar to that of Example 1, except that the dimethylnitrosamine-treated rats were only given 0.25% dimethylnitrosamine in saline, a much lower dose than that given in Example 1 above. Also, the duration of treatment was longer before the rats were sacrificed: 4 weeks as opposed to 3 weeks in Example 1.
The expression of the collagen α1(I) gene was measured as described in Example 1 above. For hydroxyproline analysis, liver samples were hydrolyzed for 22 hours at 110° C. with 6 N HCl. Nitrogen was determined after Kjeldahl digestion by the spectrophotometric procedure using an autoanalyzer as described by Krom [M. D. Krom, Analyst, 105:305-16, 1980]. The collagen-unique amino acid hydroxyproline from the same hydrolysate was determined by amino acid analysis (Biotronik LC 5000, Germany) after post-column derivatization on a cation exchange column (BTC 2710, Biotronik). The results are expressed as the percentage of collagen in total liver proteins.

[5] = system: dimethylnitrosamine-induced hepatic fibrosis; assay: Dimethylnitrosamine-induced severe liver fibrosis in rats (Example 1); assay type: in vivo
Procedure: The experimental method was as follows. Male Sprague-Dawley rats were divided into four groups. Two groups were injected intraperitoneally with 1% dimethylnitrosamine in saline for three consecutive days per week for 3 weeks, at a dose of 1 ml/kg body weight. This dosage regimen will induce severe liver fibrosis. The other two groups of rats, control rats, were injected with saline. One group of dimethylnitrosamine-treated rats and one control group were fed Halofuginone in the diet at a dose of 5 mg/kg weight of diet, starting three days before the dimethylnitrosamine injections were administered. At the end of the experimental period, the rats were sacrificed and the liver was removed and weighed.
(§3) Liver samples were taken for histological examination. Briefly, the tissue samples were collected into phosphate-buffered saline (PBS) and fixed overnight in 4% paraformaldehyde in PBS at 4° C. Serial 5 μm sections were prepared after the samples had been dehydrated in graded ethanol solutions, cleared in chloroform and embedded in Paraplast. Differential staining of collagenous and non-collagenous proteins was performed with 0.1% Sirius red and 0.1% fast green as a counter-stain in picric acid. This procedure stains collagen red [Gascon-Barre, M., et al., J. Histochem. Cytochem., 37:377-381, 1989].
Liver samples were then hybridized with a probe for rat collagen α1(I) expression. For hybridization with the genetic probe, the sections were deparafinized in xylene, rehydrated through a graded series of ethanol solutions, rinsed in distilled water for 5 minutes and then incubated in 2×SSC at 70° C. for 30 minutes. The sections were then rinsed in distilled water and treated with pronase, 0.125 mg/ml in 50 mM Tris-HCl, 5 mM EDTA, pH 7.5, for 10 minutes. After digestion, the slides were rinsed with distilled water, post-fixed in 10% formalin in PBS and blocked in 0.2% glycine. After blocking, the slides were rinsed in distilled water, rapidly dehydrated through graded ethanol solutions and air-dried for several hours. Before hybridization, the 1600 bp rat collagen α1(I) insert was cut out from the original plasmid, pUC18, and inserted into the pSafyre plasmid. The sections were then hybridized with this probe after digoxigenin-labeling [M. Pines et al., Matrix Biology, 14:765-71, 1996].

[6] = system: TAA-induced liver cirrhosis; assay type: in vivo, rat
Procedure: (§4) Male Sprague-Dawley rats were divided into three groups. Two groups were injected intraperitoneally with TAA twice weekly for 12 weeks, at a dose of 200 mg/kg body (Muller, A. et al., Exp. Pathol., 34:229-236, 1988; Hori, N. et al., Dig. Dis. Sci., 38:2195-2202, 1993). […] The other group of rats, control rats, was injected with saline. One group of TAA-treated rats and one control group were fed Halofuginone in the diet at a dose of 5 ppm.
For this experiment, rats in group 1 received only Halofuginone (n=4); rats in group 2 received TAA alone without Halofuginone (n=6); and rats in group 3 received TAA with Halofuginone (n=6). Groups 1and 3 received Halofuginone starting three days before the TAA injections were administered. At the end of the experimental period, the rats were sacrificed and the liver was removed and weighed.
as §3
In addition, the livers were scored in a double-blind evaluation, on a scale of 0-4, for the appearance of fibrotic tissue.

collagen type I = settings: as demonstrated in U.S. Pat. No. 5,449,678; cited from earlier work
[7] = system: TAA-induced liver cirrhosis; assay: Treatment of existing TAA-induced liver cirrhosis in rats (Example 4); assay type: in vivo, rat
Procedure: as §4, §3
In addition, the livers were scored in a double-blind evaluation, on a scale of 0-4, for the appearance of fibrotic tissue. […]

[8] = bile duct ligated rats fed Halofuginone vs bile duct ligation only
[9] = bile duct ligated rats, Halofuginone 5 mg per kg diet

## O=C(CC1NCCC[C@H]1O)Cn1cnc2cc(Br)c(Cl)cc2c1=O (some centres unmarked) [Halofuginone]
Stellate cells [1]
  pathological expression of smooth muscle actin by stellate cells: prevented
[2]; [8]
  bile duct ligation-induced increase in collagen synthesis: significantly reduced
  bile duct ligation-induced increase in collagen α1(I) gene expression: significantly reduced
[2]; [9]
  serum alanine aminotransferase, higher in rats not given Halofuginone than in rats fed Halofuginone: 56%
  serum alkaline phosphatase in rats not given Halofuginone relative to rats fed Halofuginone: 257%
  serum aspartate aminotransferase, higher in rats not given Halofuginone than in rats fed Halofuginone: 15%
Stellate cells [3]
  pathological expression of smooth muscle actin by stellate cells: significantly reduced
[4]; 0.25% dimethylnitrosamine plus Halofuginone
  increased collagen α1(I) gene expression in liver: abolished
[4]; 0.25% dimethylnitrosamine, Halofuginone in diet
  dimethylnitrosamine-induced increase in liver hydroxyproline concentration: completely inhibited
[5]; Halofuginone alone, 5 mg/kg diet, all six rats survived
  toxicity (survival): no toxicity
[5]; rat, in vivo
  liver weight: 11 ± 1.5 g
[5]; rats given 1% dimethylnitrosamine i.p. and Halofuginone 5 mg/kg diet, 3 weeks, compared to dimethylnitrosamine alone
  expression of collagen α1(I) gene in liver (in situ hybridization): marked reduction
[5]; rats given both Halofuginone and dimethylnitrosamine, dimethylnitrosamine alone 4.5 g and 5.0 g
  liver weight: 8.5 ± 1.7 g
[5]; rats given both dimethylnitrosamine and Halofuginone 5 mg/kg diet
  thickening of collagen bundles in liver (Sirius red staining): markedly reduced
[5]; rats given both dimethylnitrosamine and Halofuginone, four of six died with dimethylnitrosamine alone
  rats died by the end of three weeks: one of the six
[6]; Halofuginone plus TAA vs TAA alone (prevention)
  reduction of fibrotic scores for liver: 43%
[6]; rat, in vivo
  effect on body weight: no effect
  effect on spleen weight: no effect
[6]; rats given both TAA (200 mg/kg i.p. twice weekly, 12 weeks) and Halofuginone 5 ppm in diet from three days before TAA
  thickening of collagen bundles in liver (Sirius red staining): markedly reduced
[6]; scale of 0-4, rats given both Halofuginone and TAA (prevention), TAA alone 2.16±0.7
  average double-blind liver fibrosis score: 1.25±0.8
Collagen type I
  synthesis of collagen type I in bone chondrocytes in vitro: inhibits
[7]; Halofuginone given for four weeks after twelve weeks of TAA
  thickening of collagen bundles in liver (Sirius red staining): markedly reduced
[7]; scale of 0-4, group 3, Halofuginone after twelve weeks TAA, TAA alone 2.16±0.7 (group 1) or 3.06±1.7 (group 2)
  average double-blind liver fibrosis score: 1.18±1.6
